Where a name gives a salt, the structure may show the parent alone.
Test system: A. baumannii S 226 strain producing CHDL Oxacillinases (OXA 51, OXA-23)
Test: Time-kill study: viable bacterial count in Mueller Hinton broth
Format: cell-based, Acinetobacter baumannii
Settings: for Bacterial count: initial count 6.62 log CFU/ml
Description: The antibacterial activity of compositions according to the invention against various bacterial strains was investigated. In a typical study, freshly grown cultures were diluted to required cell density (initial starting inoculum) in Mueller Hinton broth medium (BD, USA). The antibacterial agents, either alone or in combination, at required concentrations were added into the medium containing the desired initial starting inoculum. The samples were incubated under shaking condition (120 rpm) at 37° C. Enumeration of viable bacterial count was undertaken, every 2 hours, by diluting in normal saline and plating on to the Tryptic Soya Agar plates (BD, USA). The plates were incubated for 24 hours to arrive at the viable bacterial count. The antibacterial activity is expressed in terms of Colony Forming Units (CFU). The decrease of 1 Log CFU/ml, after administration of combination of present invention, in comparison to initial bacterial count corresponds to 90% killing of bacteria. Similarly, 2 Log CFU/ml reductions corresponds to 99% killing of bacteria and 3 Log CFU/ml reductions is equal to 99.9% killing of bacteria.
The combination according to invention was tested against highly resistant A. baumannii S 226 strain producing Carbapenem hydrolyzing (CHDL) Oxacillinases [OXA-51, OXA-23]. The assay without any antibacterial agent was taken as control.

[1] = 2 hours, active ingredient alone at 8 mcg/ml
[2] = 4 hours, active ingredient alone at 8 mcg/ml
[3] = 6 hours, active ingredient alone at 8 mcg/ml
[4] = 8 hours, active ingredient alone at 8 mcg/ml
[5] = 24 hours, active ingredient alone at 8 mcg/ml

| SMILES | Bacterial count [1] [Log10 CFU/ml] | Bacterial count [2] [Log10 CFU/ml] | Bacterial count [3] [Log10 CFU/ml] | Bacterial count [4] [Log10 CFU/ml] | Bacterial count [5] [Log10 CFU/ml] | decrease of the bacterial count of A. baumannii throughout the duration of the study (used alone at 8 mcg/ml) | Bacterial count (2 hours, active ingredient alone at 4 mcg/ml) [Log10 CFU/ml] | Bacterial count (4 hours, active ingredient alone at 4 mcg/ml) [Log10 CFU/ml] | Bacterial count (6 hours, active ingredient alone at 4 mcg/ml) [Log10 CFU/ml] | Bacterial count (8 hours, active ingredient alone at 4 mcg/ml) [Log10 CFU/ml] | Bacterial count (24 hours, active ingredient alone at 4 mcg/ml) [Log10 CFU/ml] | decrease of the bacterial count of A. baumannii throughout the duration of the study (used alone at 4 mcg/ml) |
| --- | --- | --- | --- | --- | --- | --- | --- | --- | --- | --- | --- | --- |
| C[C@@H](O)[C@H]1C(=O)N2C(C(=O)O)=C(S[C@@H]3CN[C@H](CNS(N)(=O)=O)C3)[C@H](C)[C@H]12 [Doripenem] | 7.95 | 8.08 | 8.12 | 8.50 | 8.30 | failed to decrease the bacterial count |  |  |  |  |  |  |
| C[C@@H](O)[C@H]1C(=O)N2C(C(=O)O)=C(SCCN=CN)C[C@H]12 [Imipenem] | 7.46 | 8.26 | 8.43 | 8.52 | 8.74 |  |  |  |  |  |  |  |
| C[C@@H](O)[C@H]1C(=O)N2C(C(=O)O)=C(S[C@@H]3CN[C@H](C(=O)N(C)C)C3)[C@H](C)[C@H]12 [Meropenem] | 8.00 | 8.34 | 8.45 | 8.65 | 8.70 | failed to decrease the bacterial count |  |  |  |  |  |  |
| N#C[C@@H]1CC[C@@H]2CN1C(=O)N2OS(=O)(=O)O [Sodium salt of a compound of Formula (I), sodium salt of sulphuric acid, mono[(1R,2S,5R)-2-cyano-7-oxo-1,6-diazabicyclo[3.2.1]oct-6-yl] ester] |  |  |  |  |  |  | 7.93 | 7.95 | 8.20 | 8.50 | 8.60 | failed to decrease the bacterial count |
